In ChEMBL document CHEMBL1158727, “Cyclobutane dimers from the Colombian medicinal plant Achyrocline bogotensis” (2005) one finds inhibition data, which are given here for 1 compound.

Each structure is given as a SMILES string.

What is called inhibition is the drop in the measured response relative to a control, in per cent. Read a high inhibition as strong suppression.

Holding throughout (format): functional
The subject of assay [1] is PBMC. The experiment in a line: Inhibition of LPS-induced IL10 production in human PBMC at 0.3 mg/mL after 48 hrs by ELISA. (In an ELISA, binding on a coated surface is turned into a signal by an enzyme label.)
Assay [2] has as its system PBMC. The experiment in a line: Inhibition of LPS-induced IL12 production in human PBMC at 0.3 mg/mL after 48 hrs by ELISA.
In assay [3] the test system is PBMC. In words: Inhibition of LPS-induced TNFalpha production in human PBMC at 0.3 mg/mL after 48 hrs by ELISA.

For `C[C@]12C=CC(=O)C=C1CC[C@@H]1[C@@H]2[C@@H](O)C[C@@]2(C)[C@H]1CC[C@]2(O)C(=O)CO` [PREDNISOLONE], the inhibition at 300 µg/mL with PBMC [1] stood at 0.14%; in the assay with PBMC [2] it was 0.24%; with PBMC [3], 0.44%.
